Data as given in patent US11142554B2 (MASSACHUSETTS INSTITUTE OF TECHNOLOGY, priority 2015, dated 2021).
Positions of bridges follow the written chain, without caps; N, C: chain ends. Non-standard residues stand in square brackets, D forms with d. Residues, ends and D or L forms follow the SMILES beside them. S5 = C=CCCC[C@](C)(N)C(=O)O; Nle = CCCC[C@H](N)C(=O)O

Tests used:
[1] = tested on: H929 multiple myeloma cells; assay: Cell viability by CellTiter-Glo (CTG) assay; assay type: cell-based; conditions: 24 hours
Description: (§1) Data are mean and s.d. for experiments performed in at least duplicate. Vehicle is DMSO.

[2] = tested on: MDA-MB231 cells; assay: Cell viability by CellTiter-Glo (CTG) assay; assay type: cell-based, human; conditions: 24 hours
Description: as §1

[3] = tested on: Bcl-2/Myc 2924 cells
Procedure: (§2) A whole-cell BH3 profiling assay was used to test the specificity of our Mcl-1-binding peptides in several cell lines with differing dependencies on Bcl-2, Mcl-1, Bcl-xL, or Bfl-1. In this assay, permeabilized cells were treated with increasing doses of BH3 peptides, and mitochondrial outer membrane permeabilization (MOMP) was monitored using the dye JC-1 (see below). Mcl-1/Myc 2640 is an engineered murine leukemia cell line overexpressing murine Mcl-1 and Myc, and Bcl-2/Myc 2924 is a similarly engineered cell line overexpressing human Bcl-2.
(§3) Assay plates were produced by serial dilution of each peptide from 200 μM to 0.2 nM using 10-fold dilutions in DTEB (Derived from Trehalose Experimental Buffer: 135 mM trehalose, 50 mM KCl, 20 μM EDTA, 20 μM EGTA, 0.1% BSA, 5 mM succinate, 10 mM HEPES-KOH pH 7.5) containing 0.005% w/v digitonin, 10 mM 2-mercaptoethanol, 2 μM JC-1, and 20 mg mL-1 oligomycin. Triplicate wells for each peptide were made for each cell line by adding 15 μL of the peptide dilutions to each well of a black, untreated 384-well plate. Control wells containing no peptide or 20 μM FCCP (carbonyl cyanide-4(trifluoromethoxy) phenylhydrazone, a chemical uncoupler of oxidative phosphorylation) were included for zero and complete depolarization, respectively. Multiple plates were produced from the same stock and frozen at −80 ° C. for later use. Frozen plates were brought to RT prior to use, cells were suspended in DTEB at a density of 1.34×10^6 cells/mL, and 15 μL of cell suspension was added to each well of the dilution series to yield wells ranging from 0.1 nM to 100 μM peptide and 20000 cells/well. Fluorescence of JC-1 aggregates was measured at 590 nm with 545 nm excitation on a Tecan Safire2 at 5 min intervals for 3 h. The area under each signal-vs-time curve was calculated and normalized to the untreated and FCCP values to produce the percent depolarization. Curves were plotted as the log [peptide] vs percent depolarization, with sigmoidal dose—response curves fitted using Graphpad PRISM 6.

[4] = tested on: Human multiple myeloma cell lines dependent upon Mcl-1
Procedure: as §2, §3

[5] = tested on: MDA-MB-231 cells
Procedure: as §2, §3

[6] = tested on: Mcl-1/Myc 2640 cells
Procedure: as §2, §3

[7] = target: Bcl-xL (Homo sapiens, UniProt Q07817); conditions: reported in the literature; cited from earlier work
[8] = target: Bcl-2 (Homo sapiens, UniProt P10415); conditions: reported in the literature; cited from earlier work
[9] = target: T1, Bcl-w (Homo sapiens, UniProt Q92843); conditions: reported in the literature; cited from earlier work
T1 sequence (Q92843 1-193): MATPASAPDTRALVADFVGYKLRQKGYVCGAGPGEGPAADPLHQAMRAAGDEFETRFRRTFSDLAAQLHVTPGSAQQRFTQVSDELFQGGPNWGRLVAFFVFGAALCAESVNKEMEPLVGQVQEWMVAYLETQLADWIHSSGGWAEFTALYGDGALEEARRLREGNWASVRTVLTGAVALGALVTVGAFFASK

[10] = tested on: Bfl-1; conditions: reported in the literature; cited from earlier work
[11] = target: T2, Mcl-1 (Homo sapiens, UniProt Q07820); assay: Competition of unlabeled peptides with a fluorescently labeled Bim variant; conditions: unlabeled peptide
[12] = target: T2, Mcl-1; assay: Receptor binding IC50 of M1 and stapled M1 peptides (Table 2); conditions: among M1 and its stapled variants
Description: Peptides 1-10 are SEQ ID NOs: 46, 47, 9, 48, 49, 50, 7, 51, 52, and 8 respectively.

[13] = tested on: MEF cells; assay: Lactate dehydrogenase (LDH) release assay, non-specific cell lysis; assay type: cell-based
Description: FIG. 5|Results of studies assessing non-specific cell-lysis by internally cross-linked peptides. Lactate dehydrogenase release assays (LDH) identified membrane-disruptive peptides 3 (SEQ ID NO:9) and 7 (SEQ ID NO:7); tested in MEF cells. Peptides 7, 10, 3, and 11-20 are SEQ ID NOs: 7, 8, 9, and 10-19 respectively.
Additional studies examined the non-specific cell lysis activity of peptide 3 (SEQ ID NO:9) (M1 SAHBd) and certain sequence variants of peptide 3 (SEQ ID NO:9) (M1 SAHBd).

[14] = Circular dichroism analysis of alpha-helicity; assay type: physicochemical; conditions: Tris buffer pH 7.4
Description: FIG. 4|Results of studies assessing the alpha-helicity of various internally cross-linked peptides. Circular dichroism analysis illustrating helicity of stapled peptides 3 (SEQ ID NO:9), 7 (SEQ ID NO:7), and 10 (SEQ ID NO:8) and the non-stapled peptide of the amino acid sequence […] (SEQ ID NO:54), dissolved in Tris buffer pH.7.4.

[15] = target: T3, interaction between Bak and Mcl-1 (Homo sapiens, UniProt Q07820); assay: Mcl-1 immunoprecipitation and Bak western analysis in OCI-AML3 cell lysate; assay type: biochemical
T3 construct: endogenous in cells; host or cells: OCI-AML3 cell lysate
Description: The same blot was probed with the Bak (˜28 kD) antibody.

T2 sequence (Q07820 whole entry): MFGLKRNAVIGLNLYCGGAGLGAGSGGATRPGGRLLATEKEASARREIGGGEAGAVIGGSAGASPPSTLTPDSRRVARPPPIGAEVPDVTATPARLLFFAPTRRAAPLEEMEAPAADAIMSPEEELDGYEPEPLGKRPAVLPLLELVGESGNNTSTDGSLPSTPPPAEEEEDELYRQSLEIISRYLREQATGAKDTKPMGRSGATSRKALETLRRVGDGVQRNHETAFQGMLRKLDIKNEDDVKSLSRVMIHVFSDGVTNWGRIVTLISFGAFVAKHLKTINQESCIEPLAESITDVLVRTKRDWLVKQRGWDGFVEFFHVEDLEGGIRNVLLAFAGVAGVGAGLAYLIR
T3 sequence (Q07820 whole entry): as above
Bcl-2, sequence (P10415 whole entry, species assumed): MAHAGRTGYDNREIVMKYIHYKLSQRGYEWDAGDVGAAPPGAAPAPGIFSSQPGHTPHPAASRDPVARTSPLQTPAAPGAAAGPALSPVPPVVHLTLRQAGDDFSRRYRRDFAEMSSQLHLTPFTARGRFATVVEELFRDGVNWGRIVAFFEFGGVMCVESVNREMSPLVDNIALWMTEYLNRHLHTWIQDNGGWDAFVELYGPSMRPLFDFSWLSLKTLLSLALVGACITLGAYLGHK
Bcl-xL, sequence (Q07817 whole entry, species assumed): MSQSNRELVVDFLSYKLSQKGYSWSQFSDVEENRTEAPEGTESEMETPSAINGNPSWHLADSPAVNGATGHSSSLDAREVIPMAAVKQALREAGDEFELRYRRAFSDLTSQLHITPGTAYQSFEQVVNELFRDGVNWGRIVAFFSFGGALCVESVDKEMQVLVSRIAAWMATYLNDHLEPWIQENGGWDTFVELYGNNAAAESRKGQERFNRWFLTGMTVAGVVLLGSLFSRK

CN(C)CC[C@H](CSc1ccccc1)Nc1ccc(S(=O)(=O)NC(=O)c2ccc(N3CCN(Cc4ccccc4-c4ccc(Cl)cc4)CC3)cc2)cc1[N+](=O)[O-] [ABT-737]
effect on cell viability (in words) [1]: not active
effect on cell viability (in words) [2]: clear dose-dependent reduction in cell viability

CC[C@H](C)[C@H](NC(=O)[C@H](CCCCN)NC(=O)[C@H](CCCNC(=N)N)NC(=O)[C@H](CC(C)C)NC(=O)[C@H](CCC(N)=O)NC(=O)[C@H](C)NC(=O)[C@H](C)NC(=O)[C@H](Cc1ccccc1)NC(=O)[C@H](CCC(=O)O)NC(=O)[C@@H]1CCCN1C(=O)[C@@H]1CCCN1C(=O)[C@H](CC(C)C)NC(=O)[C@H](CCC(=O)O)NC(=O)[C@H](C)NC(C)=O)C(=O)NCC(=O)N[C@@H](CC(=O)O)C(=O)N[C@@H](CCCCN)C(=O)N[C@H](C(=O)N[C@@H](Cc1ccc(O)cc1)C(=O)N[C@@H](CS)C(N)=O)C(C)C [NoxaA]
EC50 [3]: > 100 µM
EC50 [4]: > 100 µM
EC50 [5]: > 100 µM
EC50 [6]: 20 µM
no binding up to (Bcl-xL) [7]: > 2500 nM
no binding up to (Bcl-2) [8]: > 2500 nM
no binding up to (Bcl-w) [9]: > 2500 nM
no binding up to (Bfl-1) [10]: > 2500 nM
binding to Mcl-1 in competition assay (in words) [11]: very weak

CCCC[C@H](NC(=O)[C@H](Cc1c[nH]c2ccccc12)NC(=O)[C@@H](NC(C)=O)[C@@H](C)CC)C(=O)N[C@@]1(C)CCCC=CCCC[C@@](C)(C(=O)N[C@@H](CCCNC(=N)N)C(=O)N[C@@H](CC(C)C)C(=O)NCC(=O)N[C@@H](CC(=O)O)C(=O)N[C@@H](CCC(=O)O)C(=O)N[C@H](C(=O)N[C@@H](CC(N)=O)C(=O)N[C@@H](C)C(=O)N[C@@H](Cc2ccc(O)cc2)C(=O)N[C@@H](Cc2ccc(O)cc2)C(=O)N[C@@H](C)C(=O)N[C@@H](CCCNC(=N)N)C(=O)N[C@@H](CCCNC(=N)N)C(N)=O)[C@@H](C)CC)NC(=O)[C@H](CC(C)C)NC(=O)CNC(=O)[C@H](CCC(N)=O)NC1=O [peptide 3, IWNleXQGLXRLGDEINAYYARR] (Ac-IW[Nle][S5]QGL[S5]RLGDEINAYYARR-NH2; staple 4-8; N-terminus assumed)
selectivity for Mcl-1 over Bcl-xL, Bcl-2, Bclw and Bfl 1 (in words) [12]: greatest selectivity for Mcl-1
LDH release, membrane disruption (in words) [13]: membrane-disruptive
alpha-helical content (in words) [14]: highest alpha-helical content
disruption of Bak/Mcl-1 interaction (in words) [15]: interaction between Bak and Mcl-1 was disrupted
